Test results from paper PMC7730441, “Acetylcholinesterase and butyrylcholinesterase inhibitory activities of khellactone coumarin derivatives isolated from Peucedanum japonicum Thurnberg” (Scientific Reports, 2020).
Values after ≈ are worked out from the molar mass of the structure shown. Read-outs that look alike come from different tables or passages of the source.

Tests used:
recombinant human MAO-B = target: T1, recombinant human MAO-B (Homo sapiens, UniProt P27338); experiment: MAO-B inhibition assay (benzylamine); type: biochemical; conditions: inhibitor 10 µM; for remaining activity at 10 µM: read-out: Residual activity at 10 µM (%) MAO-B
T1 construct: purchased Sigma-Aldrich
T1 sequence (P27338 1-520): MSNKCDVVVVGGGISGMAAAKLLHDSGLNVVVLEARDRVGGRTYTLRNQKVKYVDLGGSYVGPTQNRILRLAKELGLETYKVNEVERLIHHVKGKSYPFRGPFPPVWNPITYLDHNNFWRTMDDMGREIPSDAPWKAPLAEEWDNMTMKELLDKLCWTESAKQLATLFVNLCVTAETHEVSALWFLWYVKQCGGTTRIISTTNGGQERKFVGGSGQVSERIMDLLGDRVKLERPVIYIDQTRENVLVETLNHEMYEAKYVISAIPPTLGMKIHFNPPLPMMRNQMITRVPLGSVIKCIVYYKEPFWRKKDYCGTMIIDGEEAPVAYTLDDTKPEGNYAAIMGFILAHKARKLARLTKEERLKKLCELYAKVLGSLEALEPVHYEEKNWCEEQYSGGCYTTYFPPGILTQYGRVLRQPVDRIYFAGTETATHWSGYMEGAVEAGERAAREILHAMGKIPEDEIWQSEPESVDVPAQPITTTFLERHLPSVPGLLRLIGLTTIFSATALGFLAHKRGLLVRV
Experimental: (§1) AChE assays were performed as described by Ellman et al.[41] with slight modifications. […] DTNB was used for color development, caused by reaction between it and thiocholine (a product of AChE). For inhibitory assays, compounds were preincubated with AChE for 15 min prior to ATCI and DTNB addition. BChE activity was assayed using the same method, but BTCI was used instead of ATCI.
(§2) Inhibitions of the activities of AChE, BChE, MAO-A, and MAO-B by the 15 compounds were investigated at an inhibitor concentration of 10 µM. IC50 values were also determined. […] The inhibition types and Ki values were determined using Lineweaver–Burk Plots and secondary plots.

[1] = target: T2, AChE (Type VI-S; from Electrophorus electricus) (Electrophorus electricus, UniProt O42275); experiment: biochemical; conditions: for IC50: read-out: IC50 (µM) AChE; for remaining activity at 10 µM: read-out: Residual activity at 10 µM (%) AChE, inhibitor 10 µM; for SI = IC50 of AChE/ IC50 of BChE: selectivity index
T2 construct: AChE (Type VI-S; from Electrophorus electricus); purchased Sigma-Aldrich Type VI-S (catalogue number not given)
Experimental: as §1, §2

BChE (from equine serum) = target: T3, BChE (from equine serum) (Equus caballus, UniProt P81908); experiment: biochemical; conditions: 15 min preincubation; for IC50: read-out: IC50 (µM) BChE
T3 construct: BChE (from equine serum); purchased Sigma-Aldrich; host or cells: equine serum
Experimental: as §1, §2

recombinant human MAO-A = target: T4, recombinant human MAO-A (Homo sapiens, UniProt P21397); experiment: MAO-A inhibition assay (kynuramine); type: biochemical; conditions: inhibitor 10 µM; for remaining activity at 10 µM: read-out: Residual activity at 10 µM (%) MAO-A
T4 construct: purchased Sigma-Aldrich
T4 sequence (P21397 1-527): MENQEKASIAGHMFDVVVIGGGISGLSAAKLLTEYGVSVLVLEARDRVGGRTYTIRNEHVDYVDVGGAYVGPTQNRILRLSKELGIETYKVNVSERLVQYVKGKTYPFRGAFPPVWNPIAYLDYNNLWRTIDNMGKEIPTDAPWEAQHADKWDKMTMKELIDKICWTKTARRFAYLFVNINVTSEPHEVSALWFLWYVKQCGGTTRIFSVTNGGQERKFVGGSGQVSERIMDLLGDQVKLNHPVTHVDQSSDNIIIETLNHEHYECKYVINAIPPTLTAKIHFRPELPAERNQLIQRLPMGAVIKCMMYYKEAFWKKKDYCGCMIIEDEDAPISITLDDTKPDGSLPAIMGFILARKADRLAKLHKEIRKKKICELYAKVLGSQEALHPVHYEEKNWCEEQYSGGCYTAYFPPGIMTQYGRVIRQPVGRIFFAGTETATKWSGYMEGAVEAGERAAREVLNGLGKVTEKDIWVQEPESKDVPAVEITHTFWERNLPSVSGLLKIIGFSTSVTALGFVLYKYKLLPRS
Experimental: as §1, §2

BChE = conditions: cited from earlier work
AChE = conditions: cited from earlier work

T2 sequence (O42275 24-633): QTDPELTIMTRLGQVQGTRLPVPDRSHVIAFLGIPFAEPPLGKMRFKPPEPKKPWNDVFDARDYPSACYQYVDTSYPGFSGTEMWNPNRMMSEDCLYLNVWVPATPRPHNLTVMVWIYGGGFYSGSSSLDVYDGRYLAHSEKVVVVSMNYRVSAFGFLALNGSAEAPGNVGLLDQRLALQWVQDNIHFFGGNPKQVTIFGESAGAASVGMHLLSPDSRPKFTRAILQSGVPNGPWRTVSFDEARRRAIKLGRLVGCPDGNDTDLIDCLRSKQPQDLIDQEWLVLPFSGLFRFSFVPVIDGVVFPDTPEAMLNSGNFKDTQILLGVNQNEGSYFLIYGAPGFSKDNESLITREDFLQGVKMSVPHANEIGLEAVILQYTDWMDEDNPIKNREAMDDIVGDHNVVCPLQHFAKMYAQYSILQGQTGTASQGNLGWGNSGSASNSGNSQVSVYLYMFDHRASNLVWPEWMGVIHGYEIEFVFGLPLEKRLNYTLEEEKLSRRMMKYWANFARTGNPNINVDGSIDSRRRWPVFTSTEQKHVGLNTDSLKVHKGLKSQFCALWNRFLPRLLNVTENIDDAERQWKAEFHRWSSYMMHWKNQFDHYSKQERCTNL
T3 sequence (P81908 whole entry): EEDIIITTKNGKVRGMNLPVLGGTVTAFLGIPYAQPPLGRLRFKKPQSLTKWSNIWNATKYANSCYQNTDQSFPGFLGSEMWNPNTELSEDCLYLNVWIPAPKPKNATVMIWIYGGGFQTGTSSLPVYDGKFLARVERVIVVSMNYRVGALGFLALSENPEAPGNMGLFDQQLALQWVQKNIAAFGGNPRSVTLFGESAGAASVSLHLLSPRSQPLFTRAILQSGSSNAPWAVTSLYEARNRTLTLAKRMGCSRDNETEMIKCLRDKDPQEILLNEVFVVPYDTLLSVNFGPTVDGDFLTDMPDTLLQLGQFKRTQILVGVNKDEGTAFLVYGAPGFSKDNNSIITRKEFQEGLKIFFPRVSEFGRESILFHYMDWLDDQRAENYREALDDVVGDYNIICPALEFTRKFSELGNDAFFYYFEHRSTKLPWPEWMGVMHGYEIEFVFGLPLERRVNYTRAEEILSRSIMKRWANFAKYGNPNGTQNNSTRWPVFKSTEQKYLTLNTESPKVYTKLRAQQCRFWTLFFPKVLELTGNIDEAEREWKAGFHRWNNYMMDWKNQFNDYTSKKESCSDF

Row | Compound | remaining activity at 10 µM (recombinant human MAO-B) | IC50 ([1]; 15 min preincubation) | remaining activity at 10 µM ([1]; 15 min preincubation) | IC50 (BChE (from equine serum)) | remaining activity at 10 µM (recombinant human MAO-A) | other results
1 | C/C=C(/C)C(=O)O[C@@H]1c2c(ccc3ccc(=O)oc23)OC(C)(C)[C@@H]1OC(=O)C(C)CC (some centres unmarked) [PJ12] | 72.4 ± 3.7% | 29 ± 1.15 µM | 58.3 ± 5.37% | > 40 µM | 78.9 ± 3.98% | SI = IC50 of AChE/ IC50 of BChE [1]: < 0.73
2 | CC(C)CC(=O)O[C@@H]1c2c(ccc3ccc(=O)oc23)OC(C)(C)[C@@H]1OC(=O)CC(C)C [PJ14, 3′,4′-diisovalerylkhellactone] | 66.1 ± 5.23% | 28.1 ± 0.33 µM | 51.5 ± 4.5% | > 40 µM | 77 ± 5.4% | SI = IC50 of AChE/ IC50 of BChE [1]: < 0.70
3 | O=c1c(O)c(-c2ccc(O)cc2)oc2cc(O)cc(O)c12 [kaempferol] | – | – | – | – | – | IC50 (BChE; from Cleistocalyx operculatus): 62.5 µM
4 | C/C=C(/C)C(=O)OC1c2c(ccc3ccc(=O)oc23)OC(C)(C)C1OC(=O)CC(C)C (centres unmarked) [PJ11, 3′-isovaleryl-4′-angeloylkhellactone] | 89.1 ± 1.36% | > 40 µM | 88.1 ± 1.35% | > 40 µM | 75.4 ± 0.3% | –
5 | CC(C)=CC(=O)O[C@@H]1c2c(ccc3ccc(=O)oc23)OC(C)(C)[C@@H]1OC(=O)CC(C)C [PJ9, 3′-isovaleryl-4′-senecioylkhellactone] | 75 ± 8.42% | 36.1 ± 0.66 µM | 86.9 ± 9.92% | 12.5 ± 2.82 µM | 80.6 ± 5.02% | SI = IC50 of AChE/ IC50 of BChE [1]: 2.89
6 | corenone B | – | – | – | – | – | IC50 (BChE; converted from μg/mL, from Niphogeton dissecta): 49.5 µM; IC50 BChE (BChE; from Niphogeton dissecta): 10.9 µg/mL
7 | C/C=C(/C)C(=O)O[C@H]1[C@H](O)c2cc3ccc(=O)oc3cc2OC1(C)C [4′-hydroxy Pd–C-III] | – | – | – | – | – | IC50 (BChE; from A. decursiva): 5.78 µM; IC50 (AChE; from Angelica decursiva): 1.09 µM
8 | Pteryxin [PJ2] | – | – | – | – | – | IC50 (BChE; converted from μg/mL, from M. purpurea): 33.5 µM; IC50 BChE (BChE; from M. purpurea): 12.96 µg/mL; Residual activity at 10 µM (%) MAO-B (recombinant human MAO-B): 79.7 ± 3.47%; Residual activity at 10 µM (%) AChE ([1]; inhibitor 10 µM, 15 min preincubation): 73.4 ± 11.3%; Residual activity at 10 µM (%) BChE (BChE (from equine serum); inhibitor 10 µM): 87.6 ± 7.14%; Residual activity at 10 µM (%) MAO-A (recombinant human MAO-A): 85.4 ± 3.80%
9 | COc1cc2oc(-c3ccc(O)cc3)cc(=O)c2c(O)c1[C@@H]1O[C@H](CO)[C@@H](O)[C@H](O)[C@H]1O [swertisin, isovitexin-7-O-methyl ether] | – | – | – | – | – | IC50 (AChE; converted from µg/mL, from Anthocleista vogelii): 71.9 µM; IC50 AChE (AChE; from Anthocleista vogelii): 32.09 µg/mL (≈ 71.9 µM)
11 | CC1=C2OCC(C)c3ccc(C)c(c32)C(=O)C1=O (centres unmarked) [mansonone E] | – | – | – | – | – | IC50 (AChE; from Mansonia gagei): 23.5 µM
12 | CC(=O)O[C@@H]1[C@H](OC(=O)C=C(C)C)c2c(ccc3ccc(=O)oc23)OC1(C)C [PJ1, Isosamidin] | 85 ± 0.57% | > 40 µM | 92.1 ± 1.7% | > 40 µM | 86 ± 5.47% | –
13 | CC1(C)Oc2cc3oc(=O)ccc3cc2C[C@@H]1O [decursinol] | – | – | – | – | – | IC50 (AChE; from Angelica gigas Nakai): 28 µM
14 | COc1ccc2c(c1OC)CN1CCc3cc4c(cc3C1=C2)OCO4 [dihydroberberine] | – | – | – | – | – | IC50 (AChE): 1.18 µM
15 | CCC(C)C(=O)O[C@@H]1c2c(ccc3ccc(=O)oc23)OC(C)(C)[C@@H]1OC(C)=O (some centres unmarked) [hyuganin C] | – | – | – | – | – | IC50 (BChE; from Mutellina purpurea): 38.9 µM
16 | COC(C)(C)[C@H](O)CCC(C)=CCOc1c2ccoc2cc2oc(=O)ccc12 [(R)-( +)-6′-hydroxy-7′-methoxybergamottin] | – | – | – | – | – | IC50 (AChE; from Citrus hystrix): 11.2 µM
